# According to the supplement of paper PMC10307832:
# Compound: CC1(C)CCC(CN2CCN(c3ccc(C(=O)NS(=O)(=O)c4ccc(NCC5CCOCC5)c([N+](=O)[O-])c4)c(Oc4cnc5[nH]ccc5c4)c3)CC2)=C(c2ccc(Cl)cc2)C1 [Venetoclax] + COc1cc2c(Oc3ccc(NC(=O)C4(C(=O)Nc5ccc(F)cc5)CC4)cc3F)ccnc2cc1OCCCN1CCOCC1 [Foretinib] (partner 0.25 µM)
# Experiment: relative viability (nuclei count vs DMSO), 5 days (fraction); higher = more cells survive
# Settings: first compound 0.01 µM
# Procedure, shortened: (§1)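 Each reported value is a median over duplicate plates. It expresses relative viability: treated-well nuclei count divided by vehicle-well nuclei count. Lung cancer cell lines in 1536-well plates were dosed by pin tool a day after seeding, alone with one drug or with a fixed anchor-drug dose plus five library-drug doses (not always all listed) in √10 steps, and nuclei were counted after 5 days.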
row,Cell Line,relative viability
1,NCI-H1623,0.897
2,PC-14,0.945
3,NCI-H1666,0.889
4,EBC-1,0.115
5,NCI-H1755,0.905
6,NCI-H2023,0.813
7,EPLC-272H,0.678
8,LCLC-97TM1,0.913
9,PC-3 [JPC-3],0.939
10,LOU-NH91,0.895
11,NCI-H647,1.08
12,NCI-H23,0.949
13,EMC-BAC-2,0.994
14,NCI-H2126,1.17
15,Calu-6,0.907
16,NCI-H1734,0.88
17,NCI-H650,0.98
18,LK-2,1.15
19,NCI-H2228,0.788

row,Cell Line,relative viability
1,NCI-H2342,1
2,SK-MES-1,0.895
3,HARA,0.916
4,COR-L23,0.884
5,COR-L 105,0.752
6,ChaGo-K-1,1.02
7,IA-LM,1.02
8,A549,0.896
9,SW 900,0.745
10,NCI-H1299,1.07
11,NCI-H520,0.628
12,NCI-H661,0.978
13,NCI-H1703,0.345
14,NCI-H1563,0.922
15,NCI-H1650,1.12
16,NCI-H2009,1.22
17,SW 1573,0.943
18,SK-LU-1,0.776

# Same assay, conditions: first compound 0.03162 µM
row,Cell Line,relative viability
1,NCI-H1623,0.906
2,PC-14,0.968
3,NCI-H1666,0.946
4,EBC-1,0.0897
5,NCI-H1755,0.893
6,NCI-H2023,0.924
7,EPLC-272H,0.849
8,LCLC-97TM1,1.03
9,PC-3 [JPC-3],1.07
10,LOU-NH91,0.969
11,NCI-H647,1.26
12,NCI-H23,0.945
13,EMC-BAC-2,1.03
14,NCI-H2126,1.21
15,Calu-6,0.861
16,NCI-H1734,0.871
17,NCI-H650,0.964
18,LK-2,1.34

row,Cell Line,relative viability
1,NCI-H2228,0.906
2,NCI-H2342,1.23
3,SK-MES-1,0.988
4,HARA,0.947
5,COR-L23,1.03
6,COR-L 105,0.78
7,ChaGo-K-1,0.944
8,IA-LM,1.17
9,A549,0.871
10,SW 900,1.05
11,NCI-H1299,1.11
12,NCI-H520,0.708
13,NCI-H661,1.01
14,NCI-H1563,0.968
15,NCI-H1650,1.11
16,NCI-H2009,1.25
17,SW 1573,0.974
18,SK-LU-1,0.853

# Same assay, conditions: first compound 0.1 µM
row,Cell Line,relative viability
1,NCI-H1623,0.893
2,PC-14,0.939
3,NCI-H1666,0.904
4,EBC-1,0.09
5,NCI-H1755,0.951
6,NCI-H2023,1.14
7,EPLC-272H,0.597
8,LCLC-97TM1,0.918
9,PC-3 [JPC-3],1.14
10,LOU-NH91,0.97
11,NCI-H647,1.13
12,NCI-H23,1.01
13,EMC-BAC-2,1.12
14,NCI-H2126,0.784
15,Calu-6,0.992
16,NCI-H1734,0.794
17,NCI-H650,1.06
18,LK-2,1.27
19,NCI-H2228,0.851

row,Cell Line,relative viability
1,NCI-H2342,1.03
2,SK-MES-1,0.951
3,HARA,0.925
4,COR-L23,1.04
5,COR-L 105,1.15
6,ChaGo-K-1,0.889
7,IA-LM,1.13
8,A549,0.989
9,SW 900,0.823
10,NCI-H1299,1.1
11,NCI-H520,0.711
12,NCI-H661,1.02
13,NCI-H1703,0.397
14,NCI-H1563,0.961
15,NCI-H1650,1.13
16,NCI-H2009,1.1
17,SW 1573,0.811
18,SK-LU-1,0.767

# Same assay, conditions: first compound 0.3162 µM
row,Cell Line,relative viability
1,NCI-H1623,0.836
2,PC-14,0.966
3,NCI-H1666,0.915
4,EBC-1,0.0924
5,NCI-H1755,0.882
6,NCI-H2023,0.84
7,EPLC-272H,0.725
8,LCLC-97TM1,0.981
9,PC-3 [JPC-3],0.987
10,LOU-NH91,0.94
11,NCI-H647,1.18
12,NCI-H23,1.07
13,EMC-BAC-2,0.986
14,NCI-H2126,1.09
15,Calu-6,0.846
16,NCI-H1734,0.823
17,NCI-H650,0.996
18,LK-2,1.18
19,NCI-H2228,1

row,Cell Line,relative viability
1,NCI-H2342,1.01
2,SK-MES-1,0.991
3,HARA,0.891
4,COR-L23,0.866
5,COR-L 105,1
6,ChaGo-K-1,0.916
7,IA-LM,1.14
8,A549,0.912
9,SW 900,0.916
10,NCI-H1299,1.07
11,NCI-H520,0.949
12,NCI-H661,0.996
13,NCI-H1703,0.328
14,NCI-H1563,1.05
15,NCI-H1650,1.2
16,NCI-H2009,1.19
17,SW 1573,0.781
18,SK-LU-1,0.816

# Same assay, conditions: first compound 1 µM
row,Cell Line,relative viability
1,NCI-H1623,0.858
2,PC-14,0.822
3,NCI-H1666,0.943
4,EBC-1,0.0981
5,NCI-H1755,0.899
6,NCI-H2023,0.653
7,EPLC-272H,0.74
8,LCLC-97TM1,0.782
9,PC-3 [JPC-3],0.994
10,LOU-NH91,0.911
11,NCI-H647,1.11
12,NCI-H23,0.993
13,EMC-BAC-2,0.978
14,NCI-H2126,1.06
15,Calu-6,0.878
16,NCI-H1734,0.878
17,NCI-H650,1.01
18,LK-2,0.891
19,NCI-H2228,0.776

row,Cell Line,relative viability
1,NCI-H2342,1.13
2,SK-MES-1,0.899
3,HARA,0.886
4,COR-L23,0.883
5,COR-L 105,0.991
6,ChaGo-K-1,0.949
7,IA-LM,0.977
8,A549,0.883
9,SW 900,1.16
10,NCI-H1299,1.03
11,NCI-H520,0.727
12,NCI-H661,0.888
13,NCI-H1703,0.367
14,NCI-H1563,0.94
15,NCI-H1650,1.07
16,NCI-H2009,1.13
17,SW 1573,0.828
18,SK-LU-1,0.775

# Compound: CC1(C)CCC(CN2CCN(c3ccc(C(=O)NS(=O)(=O)c4ccc(NCC5CCOCC5)c([N+](=O)[O-])c4)c(Oc4cnc5[nH]ccc5c4)c3)CC2)=C(c2ccc(Cl)cc2)C1 [Venetoclax] + Cc1cc(Nc2cc(N3CCN(C)CC3)nc(Sc3ccc(NC(=O)C4CC4)cc3)n2)n[nH]1 [Tozasertib] (partner 0.1 µM)
# Experiment: as above
# Settings: first compound 0.01 µM
# Procedure, shortened: as §1
row,Cell Line,relative viability
1,NCI-H522,0.605
2,NCI-H1623,0.444
3,PC-14,0.646
4,NCI-H1666,0.706
5,NCI-H1755,0.569
6,NCI-H2023,0.328
7,EPLC-272H,0.339
8,LCLC-97TM1,0.302
9,PC-3 [JPC-3],0.841
10,LOU-NH91,0.652
11,NCI-H647,0.228
12,NCI-H23,0.492
13,EMC-BAC-2,0.3
14,NCI-H2126,0.822
15,HCC-44,0.747
16,NCI-H1734,0.275
17,NCI-H650,0.682

row,Cell Line,relative viability
1,LK-2,0.154
2,NCI-H2228,0.251
3,NCI-H2342,0.59
4,SK-MES-1,0.824
5,HARA,0.0626
6,COR-L23,0.206
7,COR-L 105,0.274
8,ChaGo-K-1,0.236
9,SW 900,0.401
10,NCI-H1648,0.235
11,NCI-H520,0.413
12,NCI-H661,0.353
13,NCI-H1650,0.456
14,NCI-H2009,0.775
15,SW 1573,0.217
16,SK-LU-1,0.341

# Same assay, conditions: first compound 0.03162 µM
row,Cell Line,relative viability
1,NCI-H522,0.481
2,NCI-H1623,0.506
3,PC-14,0.601
4,NCI-H1666,0.589
5,NCI-H1755,0.504
6,NCI-H2023,0.407
7,EPLC-272H,0.391
8,LCLC-97TM1,0.27
9,PC-3 [JPC-3],0.909
10,LOU-NH91,0.697
11,NCI-H647,0.225
12,NCI-H23,0.347
13,EMC-BAC-2,0.285
14,NCI-H2126,0.791
15,HCC-44,0.978
16,NCI-H1734,0.241
17,NCI-H650,0.719

row,Cell Line,relative viability
1,LK-2,0.18
2,NCI-H2228,0.313
3,NCI-H2342,0.617
4,SK-MES-1,0.968
5,HARA,0.109
6,COR-L23,0.217
7,COR-L 105,0.397
8,ChaGo-K-1,0.218
9,SW 900,0.55
10,NCI-H1648,0.574
11,NCI-H520,0.406
12,NCI-H661,0.335
13,NCI-H1650,0.409
14,NCI-H2009,0.748
15,SW 1573,0.206
16,SK-LU-1,0.316

# Same assay, conditions: first compound 0.1 µM
row,Cell Line,relative viability
1,NCI-H522,0.599
2,NCI-H1623,0.411
3,PC-14,0.576
4,NCI-H1666,0.623
5,NCI-H1755,0.586
6,NCI-H2023,0.392
7,EPLC-272H,0.311
8,LCLC-97TM1,0.207
9,PC-3 [JPC-3],0.816
10,LOU-NH91,0.576
11,NCI-H647,0.361
12,NCI-H23,0.368
13,EMC-BAC-2,0.28
14,NCI-H2126,0.867
15,HCC-44,0.894
16,NCI-H1734,0.216
17,NCI-H650,0.685

row,Cell Line,relative viability
1,LK-2,0.19
2,NCI-H2228,0.288
3,NCI-H2342,0.375
4,SK-MES-1,0.958
5,HARA,0.0841
6,COR-L23,0.231
7,COR-L 105,0.321
8,ChaGo-K-1,0.224
9,SW 900,0.476
10,NCI-H1648,0.54
11,NCI-H520,0.434
12,NCI-H661,0.313
13,NCI-H1650,0.427
14,NCI-H2009,0.743
15,SW 1573,0.207
16,SK-LU-1,0.275

# Same assay, conditions: first compound 0.3162 µM
row,Cell Line,relative viability
1,NCI-H522,0.555
2,NCI-H1623,0.411
3,PC-14,0.553
4,NCI-H1666,0.622
5,NCI-H1755,0.593
6,NCI-H2023,0.393
7,EPLC-272H,0.452
8,LCLC-97TM1,0.185
9,PC-3 [JPC-3],0.88
10,LOU-NH91,0.684
11,NCI-H647,0.22
12,NCI-H23,0.323
13,EMC-BAC-2,0.273
14,NCI-H2126,0.86
15,HCC-44,0.791
16,NCI-H1734,0.269
